What was measured:
[1] = xn = mol fraction of the nth substance listed; conditions: 101 kPa, Liquid; for speed of sound: Pulse-echo method
[2] = refractive index (Na D-line) (dimensionless); xn = mol fraction of the nth substance listed; conditions: 101 kPa, Liquid, Standard Abbe refractometry

Cc1cccc(C)c1 [1,3-dimethylbenzene] + CC1CCCCC1
Conditions	mass density, [1] [kg/m3]	refractive index, [2]	speed of sound, [1] [m/s]
298.15 K, x2 = 0	859.8	1.49466	1321
298.15 K, x2 = 0.0514	854.4	1.49046	1313
298.15 K, x2 = 0.0975	849.6	1.4867	1307
298.15 K, x2 = 0.159	843.2	1.48174	1298
298.15 K, x2 = 0.2977	829.1	1.47072	1281
298.15 K, x2 = 0.399	819.1	1.46292	1269
298.15 K, x2 = 0.4954	809.7	1.45565	1258
298.15 K, x2 = 0.5965	800.2	1.44827	1248
298.15 K, x2 = 0.6974	791	1.44107	1238
298.15 K, x2 = 0.7948	782.3	1.4343	1230
298.15 K, x2 = 0.8933	773.8	1.42759	1222
298.15 K, x2 = 0.9495	769.1	1.42388	1218
313.15 K, x2 = 0	846.9	1.48653	1259
313.15 K, x2 = 0.0457	842.1	1.4829	1252
313.15 K, x2 = 0.0933	837.1	1.47908	1246
313.15 K, x2 = 0.1938	826.7	1.47103	1232
313.15 K, x2 = 0.2886	817	1.46361	1219
313.15 K, x2 = 0.3966	806.3	1.45534	1206
313.15 K, x2 = 0.5077	795.5	1.44702	1194
313.15 K, x2 = 0.595	787.3	1.44063	1184
313.15 K, x2 = 0.6933	778.3	1.43362	1175
313.15 K, x2 = 0.7987	768.8	1.42615	1165
313.15 K, x2 = 0.8973	760.3	1.41945	1157
313.15 K, x2 = 0.9504	756.1	1.41609	1153

C1CCCCC1 [cyclohexane] + Cc1ccccc1C
x1 = 1
Conditions	mass density, [1] [kg/m3]	refractive index, [2]	speed of sound, [1] [m/s]
298.15 K	773.9	1.4236	1255
313.15 K	759.6	1.41516	1182

Cc1cc(C)cc(C)c1 [1,3,5-trimethylbenzene] + C1CCCCC1
Conditions	mass density, [1] [kg/m3]	refractive index, [2]	speed of sound, [1] [m/s]
298.15 K, x2 = 0	861.1	1.49693	1336
298.15 K, x2 = 0.0459	857.3	1.4939	1331
298.15 K, x2 = 0.0956	853.1	1.49061	1326
298.15 K, x2 = 0.193	844.8	1.48396	1315
298.15 K, x2 = 0.2937	835.9	1.47698	1304
298.15 K, x2 = 0.3878	827.5	1.46995	1294
298.15 K, x2 = 0.4953	817.9	1.46201	1283
298.15 K, x2 = 0.598	808.6	1.45441	1274
298.15 K, x2 = 0.6944	799.7	1.44675	1265
298.15 K, x2 = 0.796	790.3	1.43896	1258
298.15 K, x2 = 0.8942	781.5	1.43119	1252
298.15 K, x2 = 0.9515	776.9	1.42697	1250
313.15 K, x2 = 0	848.8	1.48923	1277
313.15 K, x2 = 0.0488	844.8	1.48628	1271
313.15 K, x2 = 0.102	840.2	1.48264	1265
313.15 K, x2 = 0.2008	831.7	1.47604	1253
313.15 K, x2 = 0.3053	822.6	1.4688	1241
313.15 K, x2 = 0.416	812.4	1.46071	1229
313.15 K, x2 = 0.5105	803.5	1.4534	1219
313.15 K, x2 = 0.6084	794.3	1.44576	1209
313.15 K, x2 = 0.7068	785.2	1.43825	1200
313.15 K, x2 = 0.8092	775.9	1.43012	1191
313.15 K, x2 = 0.911	766.9	1.4222	1185
313.15 K, x2 = 0.9612	762.7	1.41833	1183

Cc1cc(C)cc(C)c1 [1,3,5-trimethylbenzene] + C1CCCCCCC1
x2 = 0
Conditions	mass density, [1] [kg/m3]	refractive index, [2]	speed of sound, [1] [m/s]
298.15 K	861.1	1.49693	1336
313.15 K	848.8	1.48923	1277

C1CCCCCCC1 [cyclooctane] + Cc1cccc(C)c1
Conditions	mass density, [1] [kg/m3]	refractive index, [2]	speed of sound, [1] [m/s]
298.15 K, x1 = 0.0545	857.4	1.49186	1322
298.15 K, x1 = 0.0993	855.5	1.48961	1324
298.15 K, x1 = 0.2059	851.1	1.4845	1328
298.15 K, x1 = 0.3074	847.4	1.4799	1333
298.15 K, x1 = 0.3933	844.4	1.47623	1338
298.15 K, x1 = 0.5031	841	1.47176	1346
298.15 K, x1 = 0.6002	838.2	1.46806	1353
298.15 K, x1 = 0.6993	835.9	1.46461	1361
298.15 K, x1 = 0.8198	833.5	1.46072	1372
298.15 K, x1 = 0.8909	832.4	1.45869	1379
298.15 K, x1 = 0.9503	831.8	1.45714	1385
298.15 K, x1 = 1	831.5	1.45598	1391
313.15 K, x1 = 0.0506	844.7	1.48423	1260
313.15 K, x1 = 0.0888	843.1	1.48242	1262
313.15 K, x1 = 0.1861	839.3	1.47779	1265
313.15 K, x1 = 0.2924	835.4	1.47308	1270
313.15 K, x1 = 0.3795	832.4	1.46944	1275
313.15 K, x1 = 0.487	829.1	1.46522	1282
313.15 K, x1 = 0.5832	826.4	1.46159	1289
313.15 K, x1 = 0.6823	824	1.45808	1296
313.15 K, x1 = 0.7874	821.9	1.45469	1305
313.15 K, x1 = 0.8879	820.3	1.45169	1315
313.15 K, x1 = 0.9389	819.7	1.45047	1320
313.15 K, x1 = 1	819.2	1.44877	1326
